# Source: PubChem BioAssay (NCI)
#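 A five-concentration, 48-hour dose response in 96-well plates underlies each endpoint, interpolated linearly between surrounding concentrations. GI50: concentration for 50% inhibition of growth. The concentration for full growth arrest is given as TGI.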
# System: NCI-H23 lung
# Test: growth of human tumour cells (NCI), 48 h
SMILES,GI50 [µM],TGI [µM]
Cc1ccc2c(C)c3c(ccc4ccccc43)c[n+]2c1,3.96,38.6
Cc1ccc(CN2CCC(C(=O)Nc3ccc(-c4cc5ccccc5[nH]4)cc3)CC2)o1,> 100,> 100
C=CC(=O)Nc1cc(Nc2ncc(C(=O)OC(C)C)c(-c3cn(C)c4ccccc34)n2)c(OC)cc1N(C)CCN(C)C,9.02,25.3
O=C(Nc1ccc(F)cc1)Nc1ccc(Cl)c([N+](=O)[O-])c1,2.62,10.7
CCOC(=O)Cn1c(C(F)(F)F)nc2nc(Cl)c(Cl)nc21,–,> 87.4
Fc1[nH]nc2ccc([C@@H]3Nc4ccc5[nH]ncc5c4[C@H]4C5CCC(C5)[C@@H]34)cc12 (stereo not given in full),2.8,15.9
Nc1ccccc1C#C/C=C\C#Cc1ccccc1OC(F)(F)F,6.44,80.2
Cc1cnc(NCCCN(C)C)c2c1[nH]c1ccc3cc(O)ccc3c12,–,2.04
Fc1ccc(NC(=S)SCc2ccc3c(c2)OCO3)cc1F,–,51.6

# System: SF-295 CNS
# Test: growth of human tumour cells (NCI), 48 h
SMILES,GI50 [µM],TGI [µM]
Cc1ccc2c(C)c3c(ccc4ccccc43)c[n+]2c1,3.04,31.7
Cc1ccc(CN2CCC(C(=O)Nc3ccc(-c4cc5ccccc5[nH]4)cc3)CC2)o1,71,> 100
C=CC(=O)Nc1cc(Nc2ncc(C(=O)OC(C)C)c(-c3cn(C)c4ccccc34)n2)c(OC)cc1N(C)CCN(C)C,5.11,10.6
O=C(Nc1ccc(F)cc1)Nc1ccc(Cl)c([N+](=O)[O-])c1,2.27,7.93
CCOC(=O)Cn1c(C(F)(F)F)nc2nc(Cl)c(Cl)nc21,–,> 100
Fc1[nH]nc2ccc([C@@H]3Nc4ccc5[nH]ncc5c4[C@H]4C5CCC(C5)[C@@H]34)cc12 (stereo not given in full),0.414,10.6
Nc1ccccc1C#C/C=C\C#Cc1ccccc1OC(F)(F)F,3.03,11.4
Cc1cnc(NCCCN(C)C)c2c1[nH]c1ccc3cc(O)ccc3c12,–,2.89
Fc1ccc(NC(=S)SCc2ccc3c(c2)OCO3)cc1F,–,> 100

# System: SK-MEL-5 melanoma
# Test: growth of human tumour cells (NCI), 48 h
SMILES,GI50 [µM],TGI [µM]
Cc1ccc2c(C)c3c(ccc4ccccc43)c[n+]2c1,2.25,10.4
Cc1ccc(CN2CCC(C(=O)Nc3ccc(-c4cc5ccccc5[nH]4)cc3)CC2)o1,46.6,> 100
C=CC(=O)Nc1cc(Nc2ncc(C(=O)OC(C)C)c(-c3cn(C)c4ccccc34)n2)c(OC)cc1N(C)CCN(C)C,1.78,3.21
O=C(Nc1ccc(F)cc1)Nc1ccc(Cl)c([N+](=O)[O-])c1,1.76,3.22
CCOC(=O)Cn1c(C(F)(F)F)nc2nc(Cl)c(Cl)nc21,–,76.9
Fc1[nH]nc2ccc([C@@H]3Nc4ccc5[nH]ncc5c4[C@H]4C5CCC(C5)[C@@H]34)cc12 (stereo not given in full),1.94,12.4
Nc1ccccc1C#C/C=C\C#Cc1ccccc1OC(F)(F)F,4,15
Cc1cnc(NCCCN(C)C)c2c1[nH]c1ccc3cc(O)ccc3c12,–,2.2
Fc1ccc(NC(=S)SCc2ccc3c(c2)OCO3)cc1F,–,29.5

# System: RXF 393 renal
# Test: growth of human tumour cells (NCI), 48 h
SMILES,GI50 [µM],TGI [µM]
Cc1ccc2c(C)c3c(ccc4ccccc43)c[n+]2c1,41.5,> 100
Cc1ccc(CN2CCC(C(=O)Nc3ccc(-c4cc5ccccc5[nH]4)cc3)CC2)o1,> 100,> 100
C=CC(=O)Nc1cc(Nc2ncc(C(=O)OC(C)C)c(-c3cn(C)c4ccccc34)n2)c(OC)cc1N(C)CCN(C)C,1.86,6.62
O=C(Nc1ccc(F)cc1)Nc1ccc(Cl)c([N+](=O)[O-])c1,1.75,6.71
CCOC(=O)Cn1c(C(F)(F)F)nc2nc(Cl)c(Cl)nc21,–,> 100
Fc1[nH]nc2ccc([C@@H]3Nc4ccc5[nH]ncc5c4[C@H]4C5CCC(C5)[C@@H]34)cc12 (stereo not given in full),1.22,7.8
Nc1ccccc1C#C/C=C\C#Cc1ccccc1OC(F)(F)F,4.39,23.9
Cc1cnc(NCCCN(C)C)c2c1[nH]c1ccc3cc(O)ccc3c12,–,2.16
Fc1ccc(NC(=S)SCc2ccc3c(c2)OCO3)cc1F,–,32.2

# System: MCF7 breast
# Test: growth of human tumour cells (NCI), 48 h
SMILES,GI50 [µM],TGI [µM]
Cc1ccc2c(C)c3c(ccc4ccccc43)c[n+]2c1,0.629,25.9
Cc1ccc(CN2CCC(C(=O)Nc3ccc(-c4cc5ccccc5[nH]4)cc3)CC2)o1,> 100,> 100
C=CC(=O)Nc1cc(Nc2ncc(C(=O)OC(C)C)c(-c3cn(C)c4ccccc34)n2)c(OC)cc1N(C)CCN(C)C,2.12,7.62
O=C(Nc1ccc(F)cc1)Nc1ccc(Cl)c([N+](=O)[O-])c1,2.66,11.9
CCOC(=O)Cn1c(C(F)(F)F)nc2nc(Cl)c(Cl)nc21,–,> 87.4
Fc1[nH]nc2ccc([C@@H]3Nc4ccc5[nH]ncc5c4[C@H]4C5CCC(C5)[C@@H]34)cc12 (stereo not given in full),0.387,12.6
Nc1ccccc1C#C/C=C\C#Cc1ccccc1OC(F)(F)F,3.67,> 100
Cc1cnc(NCCCN(C)C)c2c1[nH]c1ccc3cc(O)ccc3c12,–,2.15
Fc1ccc(NC(=S)SCc2ccc3c(c2)OCO3)cc1F,–,36.2

# System: SK-MEL-2 melanoma
# Test: growth of human tumour cells (NCI), 48 h
SMILES,GI50 [µM],TGI [µM]
Cc1ccc2c(C)c3c(ccc4ccccc43)c[n+]2c1,15.4,33.6
Cc1ccc(CN2CCC(C(=O)Nc3ccc(-c4cc5ccccc5[nH]4)cc3)CC2)o1,> 100,> 100
C=CC(=O)Nc1cc(Nc2ncc(C(=O)OC(C)C)c(-c3cn(C)c4ccccc34)n2)c(OC)cc1N(C)CCN(C)C,4.3,11
O=C(Nc1ccc(F)cc1)Nc1ccc(Cl)c([N+](=O)[O-])c1,2.32,5.83
CCOC(=O)Cn1c(C(F)(F)F)nc2nc(Cl)c(Cl)nc21,–,60.2
Fc1[nH]nc2ccc([C@@H]3Nc4ccc5[nH]ncc5c4[C@H]4C5CCC(C5)[C@@H]34)cc12 (stereo not given in full),0.913,12.2
Nc1ccccc1C#C/C=C\C#Cc1ccccc1OC(F)(F)F,6.38,29
Cc1cnc(NCCCN(C)C)c2c1[nH]c1ccc3cc(O)ccc3c12,–,2.47
Fc1ccc(NC(=S)SCc2ccc3c(c2)OCO3)cc1F,–,36

# System: OVCAR-4 ovarian
# Test: growth of human tumour cells (NCI), 48 h
SMILES,GI50 [µM],TGI [µM]
Cc1ccc2c(C)c3c(ccc4ccccc43)c[n+]2c1,5.21,41.7
Cc1ccc(CN2CCC(C(=O)Nc3ccc(-c4cc5ccccc5[nH]4)cc3)CC2)o1,70.1,> 100
C=CC(=O)Nc1cc(Nc2ncc(C(=O)OC(C)C)c(-c3cn(C)c4ccccc34)n2)c(OC)cc1N(C)CCN(C)C,4.97,21.3
O=C(Nc1ccc(F)cc1)Nc1ccc(Cl)c([N+](=O)[O-])c1,2.78,14
CCOC(=O)Cn1c(C(F)(F)F)nc2nc(Cl)c(Cl)nc21,–,30.2
Fc1[nH]nc2ccc([C@@H]3Nc4ccc5[nH]ncc5c4[C@H]4C5CCC(C5)[C@@H]34)cc12 (stereo not given in full),4.51,17.8
Nc1ccccc1C#C/C=C\C#Cc1ccccc1OC(F)(F)F,11.6,42
Cc1cnc(NCCCN(C)C)c2c1[nH]c1ccc3cc(O)ccc3c12,–,1.19
Fc1ccc(NC(=S)SCc2ccc3c(c2)OCO3)cc1F,–,> 100

# System: NCI/ADR-RES ovarian
# Test: growth of human tumour cells (NCI), 48 h
SMILES,GI50 [µM],TGI [µM]
Cc1ccc2c(C)c3c(ccc4ccccc43)c[n+]2c1,> 100,> 100
Cc1ccc(CN2CCC(C(=O)Nc3ccc(-c4cc5ccccc5[nH]4)cc3)CC2)o1,> 100,> 100
C=CC(=O)Nc1cc(Nc2ncc(C(=O)OC(C)C)c(-c3cn(C)c4ccccc34)n2)c(OC)cc1N(C)CCN(C)C,2.3,17.7
O=C(Nc1ccc(F)cc1)Nc1ccc(Cl)c([N+](=O)[O-])c1,2.6,10.3
CCOC(=O)Cn1c(C(F)(F)F)nc2nc(Cl)c(Cl)nc21,–,> 100
Fc1[nH]nc2ccc([C@@H]3Nc4ccc5[nH]ncc5c4[C@H]4C5CCC(C5)[C@@H]34)cc12 (stereo not given in full),0.576,8.99
Nc1ccccc1C#C/C=C\C#Cc1ccccc1OC(F)(F)F,2.82,11.1
Cc1cnc(NCCCN(C)C)c2c1[nH]c1ccc3cc(O)ccc3c12,–,20.1
Fc1ccc(NC(=S)SCc2ccc3c(c2)OCO3)cc1F,–,75.7

# System: HL-60(TB) leukemia
# Test: growth of human tumour cells (NCI), 48 h
SMILES,GI50 [µM],TGI [µM]
Cc1ccc2c(C)c3c(ccc4ccccc43)c[n+]2c1,21.5,55.8
Cc1ccc(CN2CCC(C(=O)Nc3ccc(-c4cc5ccccc5[nH]4)cc3)CC2)o1,> 100,> 100
C=CC(=O)Nc1cc(Nc2ncc(C(=O)OC(C)C)c(-c3cn(C)c4ccccc34)n2)c(OC)cc1N(C)CCN(C)C,1.47,3.7
O=C(Nc1ccc(F)cc1)Nc1ccc(Cl)c([N+](=O)[O-])c1,2.5,8.56
CCOC(=O)Cn1c(C(F)(F)F)nc2nc(Cl)c(Cl)nc21,–,42.9
Fc1[nH]nc2ccc([C@@H]3Nc4ccc5[nH]ncc5c4[C@H]4C5CCC(C5)[C@@H]34)cc12 (stereo not given in full),0.348,1.69
Nc1ccccc1C#C/C=C\C#Cc1ccccc1OC(F)(F)F,2.08,11.1
Cc1cnc(NCCCN(C)C)c2c1[nH]c1ccc3cc(O)ccc3c12,–,8.37
Fc1ccc(NC(=S)SCc2ccc3c(c2)OCO3)cc1F,–,42.6

# System: HOP-62 NSCLC
# Test: growth of human tumour cells (NCI), 48 h
SMILES,GI50 [µM],TGI [µM]
Cc1ccc2c(C)c3c(ccc4ccccc43)c[n+]2c1,5.93,24.7
Cc1ccc(CN2CCC(C(=O)Nc3ccc(-c4cc5ccccc5[nH]4)cc3)CC2)o1,55.8,> 100
C=CC(=O)Nc1cc(Nc2ncc(C(=O)OC(C)C)c(-c3cn(C)c4ccccc34)n2)c(OC)cc1N(C)CCN(C)C,7.13,22.8
O=C(Nc1ccc(F)cc1)Nc1ccc(Cl)c([N+](=O)[O-])c1,3.78,15.9
CCOC(=O)Cn1c(C(F)(F)F)nc2nc(Cl)c(Cl)nc21,–,60.4
Fc1[nH]nc2ccc([C@@H]3Nc4ccc5[nH]ncc5c4[C@H]4C5CCC(C5)[C@@H]34)cc12 (stereo not given in full),0.747,13.8
Nc1ccccc1C#C/C=C\C#Cc1ccccc1OC(F)(F)F,6.1,20.6
Cc1cnc(NCCCN(C)C)c2c1[nH]c1ccc3cc(O)ccc3c12,–,1.86
Fc1ccc(NC(=S)SCc2ccc3c(c2)OCO3)cc1F,–,> 100
